Reference: paper PMC12785511, “Integrative Profiling for BBB Permeability Using Capillary Electrochromatography, Experimental Physicochemical Parameters, and Ensemble Machine Learning” (International Journal of Molecular Sciences, 2025)
Like-named read-outs stand apart in the source and are kept apart here.

Assays:
[1] = cited from earlier work
[2] = open-tubular capillary electrochromatography (CEC), permeability k′ parameter; type: in vitro ADME; conditions: pH 7.4 HEPES buffer 40 mM, migration times in coated and uncoated capillary, mean ± SD of three independent experiments
Procedure: The separation HEPES buffer, POPC/PS liposomes (80:20 mol% ratio; large unilamellar vesicles type; LUV), and test samples were prepared according to the protocol described earlier [45]. […] To complete the coating procedure, the capillary was left to stand filled with the liposome solution for 15 min.
Since the reference drugs tested in this study are compounds ionized at pH 7.4, their migration times determined in the uncoated and coated capillary variants were used in the k′ permeability parameter calculations. At first, the experiments were conducted in the liposome-untreated capillary. Next, after coating the capillary with the inner liposomal layer, the migration times of analytes were evaluated once again in the coated one. […] The pH 7.4 HEPES buffer (40 mM) was used as the background electrolyte solution in all CEC experiments.
The CEC permeability k′ parameter was calculated for each reference drug based on its experimentally determined migration times in the uncoated and coated capillary variants using Equation (2) [56]:(2) k^′=tR(1/tEOF+ 1/tR^′− 1/tEOF^′)−1 where tR and tEOF are the migration times of the analyte and EOF marker in the coated capillary, respectively, and tR′ and tEOF′ are analogical migration times in the uncoated capillary.

physchem [3] = assay: physchem
Procedure: (§1) Using the Sirius T3 device, the physicochemical properties of the reference drugs were determined by automated potentiometric titrations. The compounds’ acidity was measured by determining their pKa parameters. […] The obtained psKa values were next extrapolated to the 0% content of methanol (pure ISA water) using the Yasuda–Shedlovsky extrapolation plots. The lipophilicity of the research compounds (log P parameters) was measured by the automated potentiometric method as well, based on the previously obtained compounds’ pKa values. The aqueous pH-metric titrations were carried out in the presence of n-octanol—an immiscible water partition solvent. […] The log P parameters were determined based on the differences between the apparent poKa and aqueous pKa values in three independent titrations conducted with diverse volume ratios of the aqueous and n-octanol phases. Log D7.4 values were calculated automatically by the Sirius T3 Refine software (version 2.0.0.0) based on the obtained log P and pKa values.

physchem [4] = assay: physchem; remark: listed apart in the source
Procedure: as §1

[5] = Sirius T3 automated potentiometric (pH-metric) titrations, pKa
Procedure: as §1

Q: Which results are given for `CNC(=O)Oc1ccc2c(c1)[C@]1(C)CCN(C)[C@@H]1N2C` [physostigmine]?
A: Log BB ([1]; rat, in vivo): 0.08; k′ ± SD (CEC) [2]: 0.01268 ± 0.00087; pKa (physchem [3]): 8.24 ± 0.04

Q: For `O=C(O)CCCc1ccc(N(CCCl)CCCl)cc1` [chlorambucil], which logP (physchem [4]) is on record?
A: 3.71 ± 0.02

Q: What about the logD (physchem [4]; pH 7.4) of the same molecule?
A: 1.07

Q: What about the “Log BB” value ([1]; experimental in vivo measurements from rats, data retrieved from literature) of the same molecule?
A: −1.70

Q: What about the pKa [5] of the same molecule?
A: 4.72 ± 0.04

Q: And the “k′ ± SD (CEC)” value [2]?
A: 0.00397 ± 0.00087

Q: Which “k′ ± SD (CEC)” value [2] does the source give for `CCCN(CCC)CCc1cccc2c1CC(=O)N2` [ropinirole] here?
A: −0.01252 ± 0.00126

Q: What about the pKa (physchem [3]) of the same molecule?
A: 9.7 ± 0.05
